Where a SMILES comes first, the peptide text is derived from it. [ ]: non-standard residue; d: D form. dPhe(4-Cl) = N[C@H](Cc1ccc(Cl)cc1)C(=O)O; d2Nal = N[C@H](Cc1ccc2ccccc2c1)C(=O)O; dCit = NC(=O)NCCC[C@@H](N)C(=O)O; d3Pal = N[C@H](Cc1cccnc1)C(=O)O
Test system: patients undergoing COS/ART
Assay: Phase II clinical trial of Cetrorelix in controlled ovarian stimulation / superovulation for assisted reproduction (COS/ART)
Assay type: in vivo, human (patients)
Method: The results of a phase II clinical trial are shown in Table I. A total of […] patients were treated. […] During multiple dosing, the mean days of Cetrorelix application is 6 days. 25 babies were born by the end of May 1996 (7 following multiple doses; 18 following single/dual doses). [table] […] [table] 238 patients were treated with Cetrorelix by subcutaneous injection of Cetrorelix […]-Lyophilisat. 134 patients were treated with multiple doses and 104 patients with single or dual doses. The multiple doses are 0.25 mg/day or higher. The single dose was 3 mg or higher. […] Multiple doses were applied for 3 to a maximum of 10 days dependent on follicular development.

[1] = multiple dose schedule, daily s.c., 3-7/14 days, phase II dose finding
[2] = single dose, posology 1 day, phase II dose finding

CC(=O)N[C@H](Cc1ccc2ccccc2c1)C(=O)N[C@H](Cc1ccc(Cl)cc1)C(=O)N[C@H](Cc1cccnc1)C(=O)N[C@@H](CO)C(=O)N[C@@H](Cc1ccc(O)cc1)C(=O)N[C@H](CCCNC(N)=O)C(=O)N[C@@H](CC(C)C)C(=O)N[C@@H](CCCNC(=N)N)C(=O)N1CCC[C@H]1C(=O)N[C@H](C)C(N)=O [Cetrorelix] (Ac-[d2Nal][dPhe(4-Cl)][d3Pal]SY[dCit]LRP[dA]-NH2)
premature LH surge (FIG. 1) (FIG. 1): absolute prevention of any premature LH surge
pregnancies (number) (all phase II patients, both regimens): 71 pregnancies
minimal effective dose (Dose/Day) [1]: 0.25 min. effect. dose mg
no effect dose (Dose/Day) [1]: 0.10 no effect. dose mg
premature LH surge (multiple doses of 0.25 mg/day or higher): No premature LH surge was seen in any patient
premature LH surge (single dose of 3 mg or higher): No premature LH surge was seen in any patient
minimal effective dose [2]: 3 min. effective dose mg
no effect dose [2]: 2 no effect. Dose mg
babies born by the end of May 1996 (total): 25

Reference: patent publication US20110306547A1, “LHRH - ANTAGONISTS IN THE TREATMENT OF FERTILITY DISORDERS” (Zentaris GmbH, priority 1996, published 2011)
